Reference: US20230193562A1, “METHOD FOR CONTROLLING VOLATILE FATTY ACID CONTENT IN PULP, PAPER, AND/OR BOARD MAKING PROCESSES” (SOLENIS TECHNOLOGIES, L.P., priority 2021, published 2023)
Like-named read-outs stand apart in the source and are kept apart here.

Tested on: Microbial strains (5) isolated from paper mill water samples
Assay: VFA reduction in TGE broth cultures of paper mill microbial isolates, VFA measured by GC-FID
Format: cell-based
Description: Equipment: A Gas Chromatograph (GC) equipped with a flame ionization detector (FID) (e.g. Agilent 6890N GC or equivalent) equipped with an autosampler is utilized with a Fused Silica Capillary Column (e.g. Agilent DB-WAX UI, 30 m×0.53 mm×1.0 μm).
Sample Preparation: An aliquot (0.5 mL) of a sample is taken from a shaken sample well via pipet and transferred into a glass vial with the standard diluent (4.5 mL). The glass vial is then capped and vortexed, and a portion of the contents transferred into a GC vial.
GC Standardization: The GC is standardized by injecting 2.0 μL of each working standard using the instrument parameters listed in Table 2 below. The areas for the standards are used to create a linear calibration curve in GC software (e.g. Agilent Chemstation or equivalent).
Quantitative Sample Analysis: Samples (2 μL injection volume) are analyzed against the working standards, with appropriate dilutions made to keep sample concentrations within the range of the standards. Peak areas of the samples are compared to the standard curves to determine the amounts of each VFA present in each sample via GC software (e.g. Agilent Chemstation or equivalent).
Calibration: A working standard (10 or 50 ppm, 2 μL) is injected at the beginning and end of each set of samples, and intermittently within long sequences of sampling, and the concentration determined and compared to the to the standard curve to maintain calibration (+/−5% of standard curve).
General Procedure: Microbial strains (5) are isolated from paper mill water samples onto individual petri plates. Overnight cultures are prepared by inoculating TGE Broth (10 mL) with a single colony from each petri plate (5 isolated strains=5 colonies per 10 mL overnight culture). Each culture is then incubated overnight at 35° C. with shaking. Portions (0.6 mL ea.) of each overnight culture are added to bottles with sterile TGE broth (29.4 mL) and the resulting mixtures are incubated with shaking at 35° C. After 2 hours (T=0), an initial sample from each bottles is taken and analyzed GC as described above. The samples are then dosed with a VFA Control Agent, capped, and incubated with shaking at 35° C. Aliquots of each sample are taken at various times post-dosage and analyzed via GC as described above, with each sample bottle capped and incubated between samplings along with an uninoculated control (sterile TGE broth) and an inoculated control (untreated). % VFA reduction is reported based on the relative VFA concentration (ppm) of a sample determined against the inoculated/untreated control.

[1] = single VFA Control Agent at 50 or 100 ppm as per Example, 0.5 h post-dosage
[2] = single VFA Control Agent at 50 or 100 ppm as per Example, 2 h post-dosage
[3] = single VFA Control Agent at 50 or 100 ppm as per Example, 2.5 h post-dosage
[4] = single VFA Control Agent, ppm as per Example (25-500 ppm), 4 h post-dosage, 35° C., vs inoculated/untreated control

Compound: O=S([O-])O.[Na+] [Example 29, Sodium bisulfite]
- VFA Red. at 0.5 h (%) [1]: 1.0%
- VFA Red. at 2 h (%) [2]: 14.6%
- VFA Red. at 2.5 h (%) [3]: 25.5%

Compound: O=P(O)(O)CN(CCCCCCN(CP(=O)(O)O)CP(=O)(O)O)CCCCCCN(CP(=O)(O)O)CP(=O)(O)O [Example 6]
- VFA Red. at 4 h (%) [4]: 12%

Compound: O=P(O)(O)CN(CCN(CP(=O)(O)O)CP(=O)(O)O)CCN(CP(=O)(O)O)CP(=O)(O)O [Example 24, Diethylenetriamine penta(methylene phosphonic acid)]
- VFA Red. at 0.5 h (%): 2.1%
- VFA Red. at 2 h (%): 6.4%
- VFA Red. at 2.5 h (%): 8.2%

Compound: O=P(O)(O)CN(CCN(CP(=O)(O)O)CP(=O)(O)O)CCN(CP(=O)(O)O)CP(=O)(O)O [Example 7, Diethylenetriamine penta(methylene phosphonic acid)]
- VFA Red. at 4 h (%): 19%

Compound: O=P1([O-])OP(=O)([O-])OP(=O)([O-])OP(=O)([O-])OP(=O)([O-])OP(=O)([O-])O1.[Na+].[Na+].[Na+].[Na+].[Na+].[Na+] [Example 3, Sodium hexametaphosphate]
- VFA Red. at 4 h (%) [4]: 0%

Compound: O=P(O)(O)CN(CCCCCCN(CP(=O)(O)O)CP(=O)(O)O)CCCCCCN(CP(=O)(O)O)CP(=O)(O)O [Example 5]
- VFA Red. at 4 h (%) [4]: 4%

Compound: Polyamino polyether methylene phosphonic acid [Example 10]
- VFA Red. at 4 h (%) [4]: 10%

Compound: O=P(O)(O)CN(CCN(CP(=O)(O)O)CP(=O)(O)O)CCN(CP(=O)(O)O)CP(=O)(O)O [Example 8, Diethylenetriamine penta(methylene phosphonic acid)]
- VFA Red. at 4 h (%): 25%

Compound: O=S([O-])O.[Na+] [Example 28, Sodium bisulfite]
- VFA Red. at 0.5 h (%) [1]: 3.1%
- VFA Red. at 2 h (%) [2]: 0.0%
- VFA Red. at 2.5 h (%) [3]: 6.9%

Compound: Polyamino polyether methylene phosphonic acid [Example 9]
- VFA Red. at 4 h (%) [4]: 5%

Compound: O=P1([O-])OP(=O)([O-])OP(=O)([O-])OP(=O)([O-])OP(=O)([O-])OP(=O)([O-])O1.[Na+].[Na+].[Na+].[Na+].[Na+].[Na+] [Example 4, Sodium hexametaphosphate]
- VFA Red. at 4 h (%) [4]: 4%

Compound: Diethylenetriamine penta(methylene phosphonic acid) sodium salt [Example 26]
- VFA Red. at 0.5 h (%) (sodium salt): 3.1%
- VFA Red. at 2 h (%) (sodium salt): 6.4%
- VFA Red. at 2.5 h (%) (sodium salt): 9.1%

Compound: Diethylenetriamine penta(methylene phosphonic acid) sodium salt [Example 27]
- VFA Red. at 0.5 h (%) (sodium salt): 4.2%
- VFA Red. at 2 h (%) (sodium salt): 7.9%
- VFA Red. at 2.5 h (%) (sodium salt): 6.9%

Compound: O=P(O)(O)CN(CCN(CP(=O)(O)O)CP(=O)(O)O)CCN(CP(=O)(O)O)CP(=O)(O)O [Example 25, Diethylenetriamine penta(methylene phosphonic acid)]
- VFA Red. at 0.5 h (%): 8.3%
- VFA Red. at 2 h (%): 12.5%
- VFA Red. at 2.5 h (%): 9.1%
